From patent US20090227601A1, “Bradykinin 1 Receptor Antagonists” (Amgen Inc., priority 2005, published 2009)
Several values for one entry are separate records, joined by “and”; a condition that tells them apart may be missing. Equal values may be shown once. Where a name gives a salt, the structure may show the parent alone. No end group written: not given here.

Molecular target: T1, hB2 receptor (Homo sapiens, UniProt P30411)
T1 construct: host or cells: CHO-K1
T1 sequence (P30411 1-391): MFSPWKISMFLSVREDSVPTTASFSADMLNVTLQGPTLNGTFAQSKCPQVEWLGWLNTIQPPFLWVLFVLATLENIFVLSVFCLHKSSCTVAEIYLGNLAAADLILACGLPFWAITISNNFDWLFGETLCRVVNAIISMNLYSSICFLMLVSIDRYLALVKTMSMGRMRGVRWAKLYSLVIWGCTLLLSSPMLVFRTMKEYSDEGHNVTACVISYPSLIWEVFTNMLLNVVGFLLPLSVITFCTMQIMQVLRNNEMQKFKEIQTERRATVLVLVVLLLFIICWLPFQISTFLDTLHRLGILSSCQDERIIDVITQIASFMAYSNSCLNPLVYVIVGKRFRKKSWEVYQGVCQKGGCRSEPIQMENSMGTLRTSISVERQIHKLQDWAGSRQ
Test: In vitro Assay of hB2 Receptor Function using Calcium Flux
Type: cell-based
Settings: recombinant CHO cells, antagonist IC50 against agonist at EC80
Description: In vitro Assay of hB2 Receptor Function using Calcium Flux The intracellular calcium flux induced by hB2 receptor activation was analyzed using an hB2 recombinant cell line (CHO-K1) purchased from PerkinElmer (Catalog Number: RBHB2C000EA) on a fluorometric imaging plate reader (FLIPR). […] Culture medium was changed every other day. 24 h prior to the FLIPR assay, the hB2/CHO cells were washed once with PBS (Invitrogen) and 10 mL of Versene (1:5000, Invitrogen, Cat# 15040-066) was added to each flask. After 5 min incubation at 37° C., Versene was removed and cells were detached from the flask and resuspended in culture medium. Cells were counted and 25,000 cells/well were plated in 96-well black-sided clear bottom assay plates (Costar #3904). Cells were incubated in a 37° C. CO2 incubator overnight. The media was aspirated from the cells and replaced with 65 μL of dye-loading buffer. The loading buffer was prepared by diluting a stock solution of 0.5 mM Fluo-4 AM (Molecular Probes, dissolved in DMSO containing 10% [w/v] pluronic acid) to a concentration of 1 μM in Clear Dulbecco's Modified Eagle Medium (DMEM) containing 0.1% BSA, 20 mM HEPES, and 2.5 mM probenecid. The cells were dye-loaded for 1 h at RT. The excess dye was removed by washing the cells 2× with assay buffer. The assay buffer consists of Hank's Balanced Salt Solution (HBSS) containing 20 mM HEPES, 0.1% BSA, and 2.5 mM probenecid. After the wash cycles, a volume of 100 μL was left in each well, and the plate was ready to be assayed in the FLIPR System. […] The cell plate and the compound plates were loaded onto the FLIPR and during the assay, fluorescence readings are taken simultaneously from all 96 wells of the cell plate. Ten 1-second readings were taken to establish a stable baseline for each well, then 25 μL from the B1 antagonist plate was rapidly (50 μL/sec.) added. The fluorescence signal was measured in 1-second (1 min) followed by 6-second (2 min) intervals for a total of 3 min to determine if there is any agonist activity with the compounds.

Molecule | IC50
Cc1ccc(S(=O)(=O)N2C=CNC(=O)[C@H]2CC(=O)NC2CCC(NCC(C)(C)C)CC2(C)C)cc1 (mixture of isomers) [T-1-44] | 2300 nM
2-((2R)-1-((4-chloro-2,5-dimethylphenyl)sulfonyl)-3-oxo-1,2,3,4-tetrahydro-2-pyrazinyl)-N-((4S)-3,3-dimethyl-4-piperidinyl)acetamide; and 2-((2R)-1-((4-chloro-2,5-dimethylphenyl)sulfonyl)-3-oxo-1,2,3,4-tetrahydro-2-pyrazinyl)-N-((4R)-3,3-dimethyl-4-piperidinyl)acetamide [T-1-48] | 400 nM
Cc1ccc(S(=O)(=O)N2C=CNC(=O)[C@H]2CC(=O)N2CCCC2c2ccccc2)cc1 (stereo partly drawn) [T-3-43, (3R)-4-((4-methylphenyl)sulfonyl)-3-(2-oxo-2-(2RS-phenyl-1-pyrrolidinyl)ethyl)-3,4-dihydro-2(1H)-pyrazinone] | 2600 nM
Cc1ccc(S(=O)(=O)N2C=CNC(=O)[C@H]2CC(=O)NC2CCC(NC3CC3)CC2(C)C)cc1 (mixture of isomers) [T-1-43] | 14 nM
Cc1ccc(S(=O)(=O)N2C=CNC(=O)[C@H]2CC(=O)NC2CCC(N3CCC(F)CC3)CC2(C)C)cc1 (mixture of isomers) [T-1-42] | 1980 nM
Cc1ccc(S(=O)(=O)N2C=CNC(=O)[C@H]2CC(=O)NC2CCN(C(=O)OC(C)(C)C)CC2(C)C)cc1 (mixture of isomers) [T-1-15, 1,1-dimethylethyl (4R)-3,3-dimethyl-4-((((2R)-1-((4-methylphenyl)sulfonyl)-3-oxo-1,2,3,4-tetrahydro-2-pyrazinyl)acetyl)amino)-1-piperidinecarboxylate; and 1,1-dimethylethyl (4S)-3,3-dimethyl-4-((((2R)-1-((4-methylphenyl)sulfonyl)-3-oxo-1,2,3,4-tetrahydro-2-pyrazinyl)acetyl)amino)-1-piperidinecarboxylate] | 150 nM and 430 nM
Cc1ccc(S(=O)(=O)N2C=CNC(=O)[C@H]2CC(=O)NC2CC(=O)OC(C)(C)C2)cc1 (mixture of isomers) [T-1-67, N-((4RS)-2,2-dimethyl-6-oxotetrahydro-2H-pyran-4-yl)-2-((2R)-1-((4-methylphenyl)sulfonyl)-3-oxo-1,2,3,4-tetrahydro-2-pyrazinyl)acetamide] | 2200 nM
N-((3R)-1-(1-methylethyl)-3-piperidinyl)-2-((2R)-1-((4-methylphenyl)sulfonyl)-3-oxo-1,2,3,4-tetrahydro-2-pyrazinyl)acetamide; and N-((3S)-1-(1-methylethyl)-3-piperidinyl)-2-((2R)-1-((4-methylphenyl)sulfonyl)-3-oxo-1,2,3,4-tetrahydro-2-pyrazinyl)acetamide [T-1-11] | 530 nM
Cc1ccc(S(=O)(=O)N2C=CNC(=O)[C@H]2CC(=O)NC2CCC(N3CCCC3)CC2(C)C)cc1 (mixture of isomers) [T-1-50] | 1.3 nM
Cc1ccc(S(=O)(=O)N2C=CNC(=O)[C@H]2CC(=O)N2CCCC2c2cc3ccccc3[nH]2)cc1 (stereo partly drawn) [T-3-50, (3R)-3-(2-(2-RS-(1H-indol-2-yl)-1-pyrrolidinyl)-2-oxoethyl)-4-((4-methylphenyl)sulfonyl)-3,4-dihydro-2(1H)-pyrazinone] | > 4000 nM

Further lines, results first:

IC50 | Molecule
270 nM | Cc1ccc(S(=O)(=O)N2C=CNC(=O)[C@H]2CC(=O)N2C[C@@H](N)[C@H](c3ccccc3)C2)cc1 [T-3-10, (3R)-3-(2-((3S)-3-(amino)-4(R)-4-phenyl-1-pyrrolidinyl)-2-oxoethyl)-4-((4-methylphenyl)sulfonyl)-3,4-dihydro-2(1H)-pyrazinone]
190 nM | CO[C@H]1CC[C@H](NC(=O)C[C@@H]2C(=O)NC=CN2S(=O)(=O)c2ccc(C)cc2)CC1 [T-1-30, N-(trans-4-(methyloxy)cyclohexyl)-2-((2R)-1-((4-methylphenyl)sulfonyl)-3-oxo-1,2,3,4-tetrahydro-2-pyrazinyl)acetamide]
170 nM | 1,1-dimethylethyl (3R)-3-((((2R)-1-((4-methylphenyl)sulfonyl)-3-oxo-1,2,3,4-tetrahydro-2-pyrazinyl)acetyl)amino)-1-piperidinecarboxylate; and 1,1-dimethylethyl (3S)-3-((((2R)-1-((4-methylphenyl)sulfonyl)-3-oxo-1,2,3,4-tetrahydro-2-pyrazinyl)acetyl)amino)-1-piperidinecarboxylate [T-1-8]
92 nM | 2-((2R)-1-((4-methylphenyl)sulfonyl)-3-oxo-1,2,3,4-tetrahydro-2-pyrazinyl)-N-((1R,2R,4R)-1,7,7-trimethylbicyclo[2.2.1]hept-2-yl)acetamide; and 2-((2R)-1-((4-methylphenyl)sulfonyl)-3-oxo-1,2,3,4-tetrahydro-2-pyrazinyl)-N-((1R,2S,4R)-1,7,7-trimethylbicyclo[2.2.1]hept-2-yl)acetamide [T-1-2]
32 nM | Cc1cc(S(=O)(=O)N2C=CNC(=O)[C@H]2CC(=O)N2CCCC(N(C)C3CC3)CC2)c(C)cc1Cl (mixture of isomers) [T-3-28, (3R)-4-((4-chloro-2,5-dimethylphenyl)sulfonyl)-3-(2-((4R/S)-4-(cyclopropyl(methyl)amino)-1-azepanyl)-2-oxoethyl)-3,4-dihydro-2(1H)-pyrazinone trifluoroacetic acid salt]
21 nM | Cc1ccc(S(=O)(=O)N2C=CNC(=O)[C@H]2CC(=O)NC2CCN(c3ccccc3)CC2)cc1 [T-1-3, 2-((2R)-1-((4-methylphenyl)sulfonyl)-3-oxo-1,2,3,4-tetrahydro-2-pyrazinyl)-N-(1-phenyl-4-piperidinyl)acetamide]
20 nM | Cc1ccc(S(=O)(=O)N2C=CNC(=O)[C@H]2CC(=O)NC2CCN(CCc3ccccc3)CC2)cc1 [T-1-58, N-(1-(2-phenethyl)-4-piperidinyl)-2-((2R)-1-((4-methylphenyl)sulfonyl)-3-oxo-1,2,3,4-tetrahydro-2-pyrazinyl)acetamide]
19 nM | N-((1R)-2,2-dimethyl-4-oxocyclohexyl)-2-((2R)-1-((4-methylphenyl)sulfonyl)-3-oxo-1,2,3,4-tetrahydro-2-pyrazinyl)acetamide; and N-((1S)-2,2-dimethyl-4-oxocyclohexyl)-2-((2R)-1-((4-methylphenyl)sulfonyl)-3-oxo-1,2,3,4-tetrahydro-2-pyrazinyl)acetamide [T-1-37]
15 nM | CC(=O)N1CCC(NC(=O)C[C@@H]2C(=O)NC=CN2S(=O)(=O)c2ccc(C)cc2)C(C)(C)C1 (stereo partly drawn) [T-1-18, N-(1-acetyl-3,3-dimethyl-4-piperidinyl)-2-((2R)-1-((4-methylphenyl)sulfonyl)-3-oxo-1,2,3,4-tetrahydro-2-pyrazinyl)acetamide]
1 nM | N-((4S)-1-cyclopropyl-3,3-dimethyl-4-piperidinyl)-2-((2R)-1-((4-methylphenyl)-sulfonyl)-3-oxo-1,2,3,4-tetrahydro-2-pyrazinyl)acetamide; and N-((4R)-1-cyclopropyl-3,3-dimethyl-4-piperidinyl)-2-((2R)-1-((4-methylphenyl)-sulfonyl)-3-oxo-1,2,3,4-tetrahydro-2-pyrazinyl)acetamide [T-1-45]
0.8 nM | 2-((2R)-1-((2,3-dichlorophenyl)sulfonyl)-3-oxo-1,2,3,4-tetrahydro-2-pyrazinyl)-N-((4S)-3,3-dimethyl-4-piperidinyl)acetamide; and 2-((2R)-1-((2,3-dichlorophenyl)sulfonyl)-3-oxo-1,2,3,4-tetrahydro-2-pyrazinyl)-N-((4R)-3,3-dimethyl-4-piperidinyl)acetamide [T-1-47]

Test system: not given
Test: not given
Settings: cited from earlier work

Molecule | half-life of BK in plasma
RPPGFSPFR [BK, Bradykinin] | approximately 17 seconds
